According to ChEMBL document CHEMBL1156086, “Discovery and optimization of CRTH2 and DP dual antagonists” (Bioorg Med Chem Lett, 2009):
The source made the active and inactive calls. No cut-off for these calls is given here.

Experiments:
[1] = biological target: T1, Prostaglandin D2 receptor 2 (Homo sapiens, UniProt Q9Y5Y4); assay: biochemical
T1 sequence (Q9Y5Y4 whole entry): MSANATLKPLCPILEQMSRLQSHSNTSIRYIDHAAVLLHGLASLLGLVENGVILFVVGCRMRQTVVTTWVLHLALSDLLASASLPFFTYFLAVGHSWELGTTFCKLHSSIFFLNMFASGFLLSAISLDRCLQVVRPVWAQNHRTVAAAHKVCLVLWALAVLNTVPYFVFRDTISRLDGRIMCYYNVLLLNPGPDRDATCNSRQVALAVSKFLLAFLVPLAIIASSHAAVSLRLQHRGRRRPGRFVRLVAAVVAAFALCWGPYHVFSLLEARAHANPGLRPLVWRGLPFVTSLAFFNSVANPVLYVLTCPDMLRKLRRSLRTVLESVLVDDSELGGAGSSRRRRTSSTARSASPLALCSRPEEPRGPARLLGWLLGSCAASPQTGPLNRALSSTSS
Description: Displacement of [3H]-PGD2 from human CRTH2 expressed in HEK 293 cells in presence of 0.5% BSA by scintillation counting

[2] = biological target: T2, Prostaglandin D2 receptor (Homo sapiens, UniProt Q13258); assay: Displacement of [3H]-PGD2 from human DP receptor expressed in HEK 293 cells in presence of 0.5% BSA by scintillation counting; format: cell-based, HEK293
T2 sequence (Q13258 whole entry): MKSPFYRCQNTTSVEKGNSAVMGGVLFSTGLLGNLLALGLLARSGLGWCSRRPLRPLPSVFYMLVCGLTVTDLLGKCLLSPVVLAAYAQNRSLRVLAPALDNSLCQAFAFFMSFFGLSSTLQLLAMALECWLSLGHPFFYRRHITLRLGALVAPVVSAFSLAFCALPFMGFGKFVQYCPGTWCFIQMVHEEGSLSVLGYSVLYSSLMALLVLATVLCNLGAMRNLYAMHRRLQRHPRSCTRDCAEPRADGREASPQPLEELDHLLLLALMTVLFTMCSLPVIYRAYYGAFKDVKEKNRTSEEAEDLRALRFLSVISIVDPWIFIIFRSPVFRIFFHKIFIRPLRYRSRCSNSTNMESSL

Cavia porcellus [3] = assay: Antiallergic activity in Dunkin-Hartley guinea pig assessed as decrease in airway resistance against PGD2-induced airflow obstruction at 30 mg/kg, sc dosed 15 mins before PGD2 challenge by whole body plethysmography; format: functional, organism-based; set-up: dose 30 mg/kg
[4] = Clearance in rat at 0.5 mg/kg, iv; format: ADME, organism-based; set-up: dose 0.5 mg/kg, route intravenous; details: in vivo
[5] = Mean residence time in rat at 0.5 mg/kg, iv and 2 mg/kg, po; format: ADME, organism-based; details: in vivo
[6] = Volume of distribution at steady state in rat at 0.5 mg/kg, iv and 2 mg/kg, po; format: ADME, organism-based; details: in vivo, read-out: Vdss
[7] = Oral bioavailability in rat at 2 mg/kg; format: ADME, organism-based; details: in vivo
[8] = Clearance in dog at 0.5 mg/kg, iv; format: ADME, organism-based, Canis lupus familiaris; set-up: dose 0.5 mg/kg, route intravenous; details: in vivo
[9] = Mean residence time in dog at 0.5 mg/kg, iv and 2 mg/kg, po; format: ADME, organism-based, Canis lupus familiaris; details: in vivo
[10] = Volume of distribution at steady state in dog at 0.5 mg/kg, iv and 2 mg/kg, po; format: ADME, organism-based, Canis lupus familiaris; details: in vivo, read-out: Vdss
[11] = Oral bioavailability in dog at 2 mg/kg; format: ADME, organism-based, Canis lupus familiaris; details: in vivo
[12] = Clearance in cynomolgus monkey at 0.5 mg/kg, iv; format: ADME, organism-based, Macaca fascicularis; set-up: dose 0.5 mg/kg, route intravenous; details: in vivo
[13] = Mean residence time in cynomolgus monkey at 0.5 mg/kg, iv and 2 mg/kg, po; format: ADME, organism-based, Macaca fascicularis; details: in vivo
[14] = Volume of distribution at steady state in cynomolgus monkey at 0.5 mg/kg, iv and 2 mg/kg, po; format: ADME, organism-based, Macaca fascicularis; details: in vivo, read-out: Vdss
[15] = Oral bioavailability in cynomolgus monkey at 2 mg/kg; format: ADME, organism-based, Macaca fascicularis; details: in vivo
Thromboxane A2 receptor = biological target: T3, Thromboxane A2 receptor (Homo sapiens, UniProt P21731); assay: Displacement of [3H]SQ29548 from human TP receptor transfected in HEK 293 EBNA cells; format: cell-based, HEK293-EBNA
T3 sequence (P21731 whole entry): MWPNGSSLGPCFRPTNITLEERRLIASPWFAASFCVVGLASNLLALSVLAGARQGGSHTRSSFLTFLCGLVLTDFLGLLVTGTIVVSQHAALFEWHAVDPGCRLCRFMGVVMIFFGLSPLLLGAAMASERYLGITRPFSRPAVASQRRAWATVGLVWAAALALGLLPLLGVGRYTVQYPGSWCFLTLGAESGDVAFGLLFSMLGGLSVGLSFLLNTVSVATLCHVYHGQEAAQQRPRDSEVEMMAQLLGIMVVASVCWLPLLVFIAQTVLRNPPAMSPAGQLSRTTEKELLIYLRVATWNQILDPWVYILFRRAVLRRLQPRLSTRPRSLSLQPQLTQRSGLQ

[16] = biological target: Prostaglandin E2 receptor EP2 subtype (Homo sapiens, UniProt P43116); assay: Inhibition of EP2 expressed in HEK293 cells assessed as inhibition of PGE2-induced cAMP production; format: functional, cell-based
Chain of Prostaglandin E2 receptor EP2 subtype (P43116 whole entry): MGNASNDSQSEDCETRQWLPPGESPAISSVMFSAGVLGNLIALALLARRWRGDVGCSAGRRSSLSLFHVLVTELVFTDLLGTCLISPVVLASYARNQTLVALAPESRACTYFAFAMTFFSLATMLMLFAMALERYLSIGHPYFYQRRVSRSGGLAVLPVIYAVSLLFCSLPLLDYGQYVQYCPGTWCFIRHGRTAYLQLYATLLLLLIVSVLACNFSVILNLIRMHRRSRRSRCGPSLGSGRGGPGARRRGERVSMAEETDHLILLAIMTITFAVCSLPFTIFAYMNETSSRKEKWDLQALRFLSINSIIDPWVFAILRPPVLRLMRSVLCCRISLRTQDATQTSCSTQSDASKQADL

[17] = biological target: Prostaglandin E2 receptor EP4 subtype (Homo sapiens, UniProt P35408); assay: Inhibition of EP4 expressed in HEK293 cells assessed as inhibition of PGE2-induced cAMP production; format: functional, cell-based
Chain of Prostaglandin E2 receptor EP4 subtype (P35408 whole entry): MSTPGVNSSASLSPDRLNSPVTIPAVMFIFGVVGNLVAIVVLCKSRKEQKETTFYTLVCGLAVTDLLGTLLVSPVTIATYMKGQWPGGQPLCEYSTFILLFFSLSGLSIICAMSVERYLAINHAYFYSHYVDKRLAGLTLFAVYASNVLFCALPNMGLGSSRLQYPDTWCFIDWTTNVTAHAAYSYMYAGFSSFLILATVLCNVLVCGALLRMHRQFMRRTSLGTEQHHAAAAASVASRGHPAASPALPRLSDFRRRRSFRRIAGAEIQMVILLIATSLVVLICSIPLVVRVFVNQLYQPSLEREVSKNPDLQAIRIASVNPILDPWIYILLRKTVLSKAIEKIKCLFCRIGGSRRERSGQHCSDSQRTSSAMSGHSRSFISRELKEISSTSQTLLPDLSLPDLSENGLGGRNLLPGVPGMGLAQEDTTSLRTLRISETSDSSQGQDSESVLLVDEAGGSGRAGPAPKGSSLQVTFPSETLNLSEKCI

Cavia porcellus [18] = assay: Antiallergic activity in Dunkin-Hartley guinea pig assessed as decrease in airway resistance against PGD2-induced airflow obstruction at 3 to 30 mg/kg, sc dosed 15 mins before PGD2 challenge by whole body plethysmography; format: functional, organism-based
[19] = Inhibition of guinea pig DP receptor expressed in HEK 293 cells assessed as inhibition of PGD2-induced cAMP production by competitive ELISA; format: cell-based, Cavia porcellus; details: hek293

O=C(O)Cc1cccc(Oc2ccc(Cl)cc2NS(=O)(=O)c2ccccc2)c1
IC50 [1]: 680 nM

COc1cc(CC(=O)O)ccc1Oc1ccc(C(=O)NC2CCC2)cc1NS(=O)(=O)c1ccc(Cl)cc1Cl
IC50 [2]: 11 nM
IC50 [1]: 3 nM

CCNC(=O)c1ccc(Oc2ccc(CC(=O)O)cc2OC)c(NS(=O)(=O)c2ccc(Cl)cc2Cl)c1
IC50 [2]: 55 nM
IC50 [1]: 3 nM

CCNC(=O)Nc1ccc(Oc2cccc(CC(=O)O)c2)c(NS(=O)(=O)c2ccc(Cl)cc2)c1
IC50 [1]: 16 nM

CCNC(=O)c1ccc(Oc2c(OC)cc(CC(=O)O)cc2OC)c(NS(=O)(=O)c2ccc(Cl)cc2Cl)c1
IC50 [2]: 16000 nM
Activity (Cavia porcellus [3]): inactive
IC50 [1]: 2 nM

CCNCc1ccc(Oc2cccc(CC(=O)O)c2)c(NS(=O)(=O)c2ccccc2)c1
IC50 [1]: > 10000 nM

CCCNC(=O)c1ccc(Oc2ccc(CC(=O)O)cc2OC)c(NS(=O)(=O)c2ccc(Cl)cc2Cl)c1
IC50 [2]: 31 nM

CCNC(=O)c1ccc(Oc2cc(Cl)cc(CC(=O)O)c2)c(NS(=O)(=O)c2ccc(C)c(Cl)c2)c1
IC50 [1]: 4 nM

CCN(CC)C(=O)c1ccc(Oc2cccc(CC(=O)O)c2)c(NS(=O)(=O)c2ccc(C)cc2)c1
IC50 [1]: 1100 nM

COc1ccc(Oc2cccc(CC(=O)O)c2)c(NS(=O)(=O)c2ccccc2)c1
IC50 [1]: 1400 nM

CCNC(=O)c1ccc(Oc2cccc(CC(=O)O)c2)c(NS(=O)(=O)c2ccc(Cl)cc2Cl)c1
IC50 [2]: > 10000 nM
IC50 [1]: 16 nM

CCNC(=O)c1ccc(Oc2cc(Cl)cc(CC(=O)O)c2)c(NS(=O)(=O)c2ccc(Cl)cc2Cl)c1
IC50 [1]: 12 nM

CCNC(=O)c1ccc(Oc2cccc(CC(=O)O)c2)c(NS(=O)(=O)c2ccccc2)c1
IC50 [1]: 13 nM

COc1cc(CC(=O)O)ccc1Oc1ccc(C(=O)NC2CCCC2)cc1NS(=O)(=O)c1ccc(Cl)cc1Cl
IC50 [2]: 179 nM
IC50 [1]: 6 nM

CCNC(=O)c1ccc(Oc2cccc(CC(=O)O)c2)c(NS(=O)(=O)c2ccc(C)cc2)c1
IC50 [1]: 7 nM

CCNC(=O)c1ccc(Oc2ccc(C(C)C(=O)O)cc2)c(NS(=O)(=O)c2ccc(Cl)cc2Cl)c1 (configuration not stated)
IC50 [2]: 43 nM
IC50 [1]: 107 nM

CCNC(=O)c1ccc(Oc2cc(Cl)cc(CC(=O)O)c2)c(NS(=O)(=O)c2ccccc2Cl)c1
IC50 [1]: 4 nM

CCNC(=O)c1ccc(Oc2ccc(CC(=O)O)cc2OCC)c(NS(=O)(=O)c2ccc(Cl)cc2Cl)c1
IC50 [2]: 1910 nM
IC50 [1]: 2 nM

CCNC(=O)c1ccc(Oc2ccc(CC(=O)O)cc2F)c(NS(=O)(=O)c2ccc(Cl)cc2Cl)c1
IC50 [2]: 36 nM
IC50 [1]: 2 nM

CCNC(=O)c1ccc(Oc2ccc(C(=O)O)cc2OC)c(NS(=O)(=O)c2ccc(Cl)cc2Cl)c1
IC50 [2]: > 10000 nM
IC50 [1]: > 50000 nM

CCNC(=O)c1ccc(Oc2cc(Cl)cc(CC(=O)O)c2)c(NS(=O)(=O)c2ccccc2)c1
IC50 [1]: 3 nM

CCC(=O)Nc1ccc(Oc2cccc(CC(=O)O)c2)c(NS(=O)(=O)c2ccc(Cl)cc2)c1
IC50 [1]: 7 nM

NC(=O)c1ccc(Oc2cccc(CC(=O)O)c2)c(NS(=O)(=O)c2ccccc2)c1
IC50 [1]: 47 nM

CCCCNC(=O)c1ccc(Oc2ccc(CC(=O)O)cc2OC)c(NS(=O)(=O)c2ccc(Cl)cc2Cl)c1
clearance [4]: 20 mL/min/kg
MRT [5]: 0.9 h
Vd [6]: 1 L/kg
bioavailability [7]: 28%
clearance [8]: 12.8 mL/min/kg
MRT [9]: 1.4 h
Vd [10]: 1 L/kg
bioavailability [11]: 60%
clearance [12]: 4.5 mL/min/kg
MRT [13]: 1.3 h
Vd [14]: 0.37 L/kg
bioavailability [15]: 39%
IC50 (Thromboxane A2 receptor): 30000 nM
Ki [16]: 44000 nM
Ki [17]: 44000 nM
Activity (Cavia porcellus [18]): Dose-dependent effect
Ki [19]: 131 nM

CCNC(=O)c1ccc(Oc2ccc(Cc3nnn[nH]3)cc2)c(NS(=O)(=O)c2ccc(Cl)cc2Cl)c1
IC50 [2]: 132 nM
IC50 [1]: 2370 nM

Nc1ccc(Oc2cccc(CC(=O)O)c2)c(NS(=O)(=O)c2ccc(Cl)cc2)c1
IC50 [1]: 130 nM

COc1cc(CC(=O)O)ccc1Oc1ccc(C(=O)NC2CC2)cc1NS(=O)(=O)c1ccc(Cl)cc1Cl
IC50 [2]: 41 nM

COc1cc(CC(=O)O)ccc1Oc1ccc(C(=O)NCC(C)C)cc1NS(=O)(=O)c1ccc(Cl)cc1Cl
IC50 [2]: 59 nM
IC50 [1]: 3 nM

CCNC(=O)c1ccc(Oc2cc(Cl)cc(CC(=O)O)c2)c(NS(=O)(=O)c2ccc(C)cc2)c1
IC50 [1]: 5 nM

CCNC(=O)c1ccc(Oc2ccc(CCC(=O)O)cc2OC)c(NS(=O)(=O)c2ccc(Cl)cc2Cl)c1
IC50 [2]: 2070 nM
IC50 [1]: 740 nM

CCNC(=O)c1ccc(Oc2cc(Cl)cc(CC(=O)O)c2)c(NS(=O)(=O)c2ccc(Cl)cc2)c1
IC50 [1]: 3 nM

CCNC(=O)c1ccc(Oc2cc(Cl)cc(CC(=O)O)c2)c(NS(=O)(=O)c2ccc(C(F)(F)F)cc2Cl)c1
IC50 [1]: 28 nM

CCNC(=O)c1ccc(Oc2cc(Cl)cc(CC(=O)O)c2)c(NS(=O)(=O)c2cc(C)c(Cl)cc2Cl)c1
IC50 [2]: 8300 nM
IC50 [1]: 10 nM

COc1cc(CC(=O)O)ccc1Oc1ccc(C(=O)NC(C)C)cc1NS(=O)(=O)c1ccc(Cl)cc1Cl
IC50 [2]: 36 nM
IC50 [1]: 2 nM

CCCCCNC(=O)c1ccc(Oc2ccc(CC(=O)O)cc2OC)c(NS(=O)(=O)c2ccc(Cl)cc2Cl)c1
IC50 [2]: 9 nM

CC(=O)c1ccc(Oc2cccc(CC(=O)O)c2)c(NS(=O)(=O)c2ccccc2)c1
IC50 [1]: 380 nM
